Test results as given in patent publication US20180099917A1, “REVERSIBLY REDUCIBLE MATERIALS AND USE THEREOF” (University of Kentucky Research Foundation, priority 2016, published 2018).
≈ marks a conversion by molar mass, not a printed value. Read-outs that look alike come from different tables or passages of the source.

How the values were obtained:
[1] = Reduction potentials versus ferrocene (electrochemistry in acetonitrile); format: physicochemical; details: for First Reduction / Second Reduction: reduction potential versus ferrocene
Description: The reversibly reducible material according to one or more of the embodiments disclosed herein is soluble in at least one solvent for redox flow batteries. Accordingly, also provided herein is a negolyte for use in redox-flow batteries, the negolyte including the reversibly reducible material and a redox flow battery solvent. Such solvents include, but are not limited to, acetonitrile, propylene glycol, propylene carbonate, dimethyl acetamide, and dimethyl formamide. […] In some embodiments, the negolyte also includes an electrolyte. Suitable electrolytes include, but are not limited to, tetraalkylammonium hexafluorophosphate, perchlorate, tetrafluoroborate, triflate, perfluorobutylsulfonate, lithium salts thereof (e.g., lithium hexafluorophosphate or perchlorate), other organic-soluble materials, any other suitable electrolyte, or a combination thereof. Other suitable electrolytes include, but are not limited to, sulfuric acid and/or potassium hydroxide. An example of the electrochemical trace, with internal ferrocene standard in acetonitrile using tetrabutylammonium hexafluorophosphate electrolyte, is shown in FIG. 1. Although discussed above with regard to non-aqueous redox flow batteries, as will be appreciated by those skilled in the art the instant disclosure is not so limited and may include aqueous redox flow batteries as well.
(§1) Following the formation of reversibly reducible materials as discussed above, various compounds were tested for structure, solubility, and reduction potentials. The results are provided in Table 2 below, with solubility shown in acetonitrile at 23° C. and reduction potentials shown versus ferrocene.

[2] = Solubility in acetonitrile; format: physicochemical
Experimental: In some embodiments, modifying the Z group in formula I above adjusts the solubility of the resulting compound. For example, in one embodiment, compound number 1 has a solubility of 0.1 M in acetonitrile (electrolyte solution), while compound number 2 has a solubility of 0.3 M in acetonitrile.
as §1

[3] = acetonitrile (electrolyte solution), organic solvent or mixture, read-out: solubility in acetonitrile
[4] = organic solvent or mixture, in acetonitrile at 23° C., read-out: Solubility

First Reduction [1] [V] | Second Reduction [1] [V] | solubility ([2]; in acetonitrile at 23° C.) | solubility [2, 3] [mM] | solubility [2, 4] [mM] | solubility compared to compound 2 ([2]; Cl at the R5 position versus identical compound without Cl) | SMILES | electrochemistry properties ([1]; second group on the N atom)
−1.295 | −1.784 | Miscible |  |  |  | COCCOCCOCCNC1=CC(=O)c2ccccc2C1=O | 
−1.295 | -1.67 | Miscible |  |  |  | COCCN(CCOC)C1=CC(=O)c2ccccc2C1=O | 
−1.266 | −1.841 |  | 100 (≈ 22.9 mg/mL) | 100 (≈ 22.9 mg/mL) |  | CC(C)CNC1=CC(=O)c2ccccc2C1=O [Compound 1] | 
−1.316 | −1.798 |  | 300 (≈ 69.4 mg/mL) | 300 (≈ 69.4 mg/mL) |  | COCCNC1=CC(=O)c2ccccc2C1=O [Compound 2] | 
 |  |  |  |  | increases the solubility | COCCNC1=C(Cl)C(=O)c2ccccc2C1=O [Compound 10] | 

SMILES | First Reduction [1] [V] | Second Reduction [1] [V] | solubility ([2]; in acetonitrile at 23° C.) | solubility [2, 3] [mM] | solubility [2, 4] [mM] | solubility compared to compound 2 ([2]; Cl at the R5 position versus identical compound without Cl) | electrochemistry properties ([1]; second group on the N atom)
CCN(CC)C1=CC(=O)c2ccccc2C1=O [Compound 11] | −1.362 | −1.686 |  | 700 (≈ 160 mg/mL) | 700 (≈ 160 mg/mL) |  | excellent electrochemistry properties
